The numbers were not newly measured in patent US20160311826A1, “SGC STIMULATORS” (IRONWOOD PHARMACEUTICALS, INC., priority 2013, published 2016), which cites them from elsewhere.

SMILES strings stand for the structures.

One series relates to obese mice. The conditions noted are these: cited from earlier work.
The test system of the next series is NO-deficient rats. The conditions noted are these: cited from earlier work.
The next series deals with sickle mice. The conditions noted are these: oral, high doses; cited from earlier work.
Series [1] concerns dystrophin-deficient zebra fish. Particulars: cited from earlier work.
The test system of another series is mdx mouse. The conditions noted are these: cited from earlier work.
Series [2] concerns sickle cell disease patients with PHT. The conditions noted are these: cited from earlier work.
For series [3], the system named is adult sickle cell disease patients. The conditions noted are these: infusions; cited from earlier work.

`O=C(O)CCCCN(CCc1cc(F)ccc1OCc1ccc(-c2ccc(C(F)(F)F)cc2)cc1)Cc1ccc(C(=O)O)cc1` [BAY 60-2770]: the overactive bladder result in the series with obese mice is reported as “ameliorates overactive bladder in obese mice”.
Consider `Nc1nc(-c2nn(Cc3ccccc3F)c3ncccc23)ncc1C1CC1` [BAY-2272], for which the bladder dysfunction entry in the series on NO-deficient rats is “protective effects”.
In the case of `N=C(N)NCCC[C@H](N)C(=O)O` [L-aminine], in the series with sickle mice, the “Gardos channel activity, dense cell formation, hemolysis, vascular reactivity” value is “decrease Gardos channel activity, dense cell formation and homolysis, as well as functional improvements in vascular reactivity”.
In the case of `CCCc1nn(C)c2c(=O)[nH]c(-c3cc(S(=O)(=O)N4CCN(C)CC4)ccc3OCC)nc12` [sildenafil], the “dystrophic skeletal muscle and survival” value in series [1] was “rescue dystrophic skeletal muscle and prolong survival”. The cardiac dynamics result with mdx mouse (mdx mice) is reported as “improve cardiac dynamics”. The “muscle ischemia, injury and fatigue after a brief bout of exercise” value with mdx mouse (mdx mouse) is “alleviate muscle ischemia, as well as injury and fatigue”. In series [2] (preliminary studies, sickle cell disease patients with severe PHT), the “PAP and exercise capacity” value is “improvements in PAP and exercise capacity”. Besides, the “serious side effects (Walk-PHaSST trial)” value in series [2] (sickle cell disease patients with Doppler-defined PHT, trial stopped prematurely) was “higher frequency of serious side effects, including increased rates of VOE, headache, and visual disturbance”.
Turning to `O=NO` [sodium nitrite], the forearm blood flow result in series [3] is “enhanced forearm blood flow”.
